Source: US20240342166A1, “PHARMACEUTICAL COMPOSITION FOR PREVENTING OR TREATING TUMOR, AND USE THEREOF” (TIUMBIO CO., LTD., priority 2021, published 2024)

How the values were obtained:
[1] = system: CT26 cell lines (Murine colon cancer cells); test: Colorectal cancer mouse model (Example 2); assay type: in vivo; settings: Day 26 from the drug administration date; groups without anti-CTLA-4 antibody; Compound 1 50 mg/kg twice a day p.o.; anti-PD-1 antibody 10 mg/kg once every three days i.p.; lenvatinib 10 mg/kg p.o.
Protocol: 170 female BALB/C mice, which were 6-8 weeks old, were purchased from OrientBio, and cancer cell lines were transplanted by subcutaneously injecting 7.5×10^5 CT26 cell lines (Murine colon cancer cells) into the right flank of each mouse.
The mice selected in Example 2.1 were assigned to the groups listed in Table 4 below, and vehicles or drugs were administered, and drug administration was initiated on Day 7 from the cell line inoculation date, and the study was terminated on Day 27 from the drug administration date.
In this case, the mouse tumor volume was calculated by the same method as the tumor volume calculation method of Example 1.1.2.
Tumor volume changes and weight changes for each group were statistically analyzed using Two-way ANOVA test, Bonferroni test, and one-tailed t-test.

B16F10 cell lines = test: Melanoma mouse model, anti-PD-1 antibody and Compound 1 (Example 1.1); assay type: in vivo; settings: Day 15 from the drug administration date; C57BL/6 mice; Compound 1 50 mg/kg twice a day p.o.; anti-PD-1 antibody 10 mg/kg once every three days i.p.
Source text: 40 female C57BL/6 mice, which were 6-8 weeks old, were purchased from OrientBio, and 1×10^6 B16F10 cell lines (KCLB, #80008) were subcutaneously injected into the right flank of each mouse, thereby transplanting the cancer cell lines thereto.
The mice were classified according to the mean and deviation of the tumor volume on Day 9.
A change in tumor volume for each group was statistically analyzed using Two-way ANOVA test.

[2] = system: human peripheral blood mononuclear cells (hPBMCs); test: In vitro IFN-γ secretion in TGF-β-inhibited, anti-CD3/anti-CD28-stimulated hPBMCs (ELISA); assay type: cell-based; settings: treated with anti-CD3 antibodies, anti-CD28 antibodies and TGF-β; stimulated for 72 hours; IFN-γ ELISA of supernatants
Protocol: A 6-well plate was coated with anti-CD3 monoclonal antibodies (OKT3) at 4° C. overnight. Each well of the 6-well plate was suctioned with an antibody solution, and washed using PBS. hPBMCs were plated on the coated 6-well plate. In order to increase the reactivity of hPBMCs, culturing was performed for 5 days under the conditions of 37° C., 5% carbon dioxide humidification incubator. The hPBMCs cultured for 5 days were inoculated in a 96-well plate at a concentration of 1×10^5 cells/well. The hPBMCs inoculated in the 96-well plate were treated with lenvatinib or Compound 1 and the hPBMCs were incubated for 1 hour, then TGF-β was added thereto and the hPBMCs were cultured for 1 hour. […] After 72 hours, the supernatants were recovered and conventional IFN-γ ELISA was performed. The IFN-γ content generated for each group was measured. Data analysis was performed using Prism 5 (GraphPad Software, Inc.), and statistical analysis was performed using One-way ANOVA and Tukey's multiple comparison.

[3] = system: 4T1 cell lines (Murine breast cancer cells); test: Breast cancer mouse model (Example 4); assay type: in vivo; settings: Day 23 from the cell line inoculation date; Compound 1 50 mg/kg twice a day p.o.; anti-PD-1 or anti-CTLA-4 antibody 10 mg/kg every three days i.p.
Source text: (§1) 60 female BALB/C mice, 6-8 weeks old, were purchased from Vital River Laboratories Research Model and Services Company.
The difference in tumor volumes was statistically analyzed using ANOVA and Tukey's multiple comparison test.

[4] = system: WEHI-164 cell lines (Murine sarcoma cells); test: Sarcoma mouse model (Example 3); assay type: in vivo; settings: Compound 1 50 mg/kg twice a day p.o.
Protocol: as §1
Drugs were administered from Day 7 to Day 23 from the WEHI-164 cell line transplantation date.
The difference in tumor volumes during the study period was statistically analyzed using one-tailed t-test, ANOVA and Tukey's multiple comparison test.

[5] = system: MBT2 cell lines (Murine bladder cancer cells); test: Bladder cancer mouse model (Example 5); settings: tumor volume on Day 30 from the cell line inoculation date; responder = tumor volume less than 1/4 of 1,500 mm^3; Compound 1 alone 15 mg/kg twice a day, in combination 50 mg/kg twice a day p.o.; anti-PD-1 antibody 12.5 mg/kg twice a week i.p.
Protocol: C3H/HeN female mice, 7 weeks old, were purchased from OrientBio. 2.5×10^5 MBT2 cell lines (Murine bladder cancer cells) were injected subcutaneously into the right flank of each mouse to transplant a cancer cell line. The MBT2 cell line transplantation date was determined as Day 0, and the tumor volume was measured on Day 6.
A 0.9% physiological saline solution was prepared as a vehicle, and a mixed solution of an anti-PD-1 antibody (BioXCell) and PBS, and a mixed solution of Compound 1 and the vehicle were prepared as study drugs.
The mice selected in Example 5.1 were assigned to a control group, a group in which an anti-PD-1 antibody was administered, a group in which Compound 1 was administered, or a group in which Compound 1 was administered in combination with an anti-PD-1 antibody, respectively. Drugs were administered from Day 6 to Day 28 from the MBT2 cell line transplantation date.
The mouse tumor volume and weight were measured three times a week during the study period after the drug administration. The tumor volume was measured by the same method as the method for measuring the tumor volume in Example 1.1.2.

Row | SMILES | drop in tumor volume compared to the tumor volume of the control group (vehicle) [1] [%] | tumor volume lower than the tumor volume measured in the control group (B16F10 cell lines) [%] | secretion of IFNγ in human PBMCs [2] | tumor volume reduced compared to the tumor volume of the control group [3] [%] | complete remission rate of the tumor ([4]; anti-CTLA-4 antibody 10 mg/kg once a week i.p., compared to the vehicle control group) [%] | tumor volume smaller than the tumor volume of the control group ([4]; Day 16 from the drug administration initiation date, anti-PD-1 antibody 10 mg/kg once a week i.p.) [%] | Response individual ratio (percent) [5] [%] | Response individual ratio (responders/mice) [5]
1 | Cc1cccc(-c2nc3n(c2-c2ccc4ncnn4c2)CCN3)n1.O=P(O)(O)O [Compound 1, 6-(6-(6-methylpyridine-2-yl)-2,3-dihydro-1H-imidazo[1,2-a]imidazol-5-yl)-[1,2,4]triazole[1,5-a]pyridine phosphate] | 59 | 44 | increased secretion of IFNγ | 16 | 30 | 71 | 9 | 1/11
2 | COc1cc2nccc(Oc3ccc(NC(=O)NC4CC4)c(Cl)c3)c2cc1C(N)=O [lenvatinib, reference compound] | 30 |  | increased secretion of IFNγ |  |  |  |  | 
